Results published in PubChem BioAssay (NCI).
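Briefly, cells in 96-well plates were exposed to five compound concentrations for 48 h, and endpoints were estimated by linear interpolation. Here, GI50 denotes the concentration required for 50% inhibition of growth. The concentration for full growth arrest is given as TGI.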

Tests used:
Experiment in all cases: inhibition of tumour cell growth, NCI panel, 48 h
ACHN renal = tested on: ACHN renal
COLO 205 colon = tested on: COLO 205 colon
EKVX NSCLC = tested on: EKVX NSCLC
HCC-2998 colon = tested on: HCC-2998 colon
MALME-3M melanoma = tested on: MALME-3M melanoma
MCF7 breast = tested on: MCF7 breast
NCI-H460 lung = tested on: NCI-H460 lung
OVCAR-3 ovarian = tested on: OVCAR-3 ovarian
U251 CNS = tested on: U251 CNS
SK-MEL-28 melanoma = tested on: SK-MEL-28 melanoma

Compound | GI50 (ACHN renal) [µM] | TGI (ACHN renal) [µM] | GI50 (COLO 205 colon) [µM] | TGI (COLO 205 colon) [µM] | GI50 (EKVX NSCLC) [µM] | TGI (EKVX NSCLC) [µM] | GI50 (HCC-2998 colon) [µM] | TGI (HCC-2998 colon) [µM] | GI50 (MALME-3M melanoma) [µM] | TGI (MALME-3M melanoma) [µM] | GI50 (MCF7 breast) [µM] | TGI (MCF7 breast) [µM] | GI50 (NCI-H460 lung) [µM] | TGI (NCI-H460 lung) [µM] | GI50 (OVCAR-3 ovarian) [µM] | TGI (OVCAR-3 ovarian) [µM] | GI50 (U251 CNS) [µM] | TGI (U251 CNS) [µM] | TGI (SK-MEL-28 melanoma) [µM] | GI50 (SK-MEL-28 melanoma) [µM]
O=C1C=Cc2ccccc2/C1=C/c1[nH]c(=O)[nH]c1O | 9.97 | > 100 | 3.59 | 31.9 | 2.46 | 25.4 | 7.43 | > 100 | 4.19 | 88.2 | 2.4 | 15.2 | 9.71 | 30.9 | 2.51 | 7.73 | 5.39 | 35 | – | –
O=c1cc2ccccc2nn1-c1ccccc1Cl | – | > 100 | – | > 100 | – | > 100 | – | > 100 | – | > 100 | – | – | – | > 100 | – | > 100 | – | > 100 | > 100 | –
O=C(O)c1cc2c(cn1)[nH]c1ccccc12 | – | > 100 | – | > 100 | – | > 100 | – | > 100 | – | > 100 | – | – | – | > 100 | – | > 100 | – | > 100 | > 100 | –
COC(=O)C1=C(O)C(O)=C(C(=O)OC)C1 | – | > 100 | – | > 100 | – | > 100 | – | > 100 | – | > 100 | – | – | – | > 100 | – | > 100 | – | > 100 | > 100 | –
Cc1c2cc[nH]c(=O)c2cc2c(=O)c3cnccc3[nH]c12 | – | > 100 | – | > 100 | – | > 100 | – | > 100 | – | > 100 | – | – | – | > 100 | – | > 100 | – | > 100 | > 100 | –
CCSc1nc(N=Cc2cccs2)c2cn[nH]c2n1 | 16.2 | > 100 | 10.9 | 24.9 | 67.8 | > 100 | 2.87 | 11.3 | – | – | 3.5 | 19.2 | 14.5 | > 100 | 10.4 | 53.9 | 69.4 | > 100 | > 100 | 22.3
O=C(c1ccccc1)c1c(C(=O)c2ccccc2)c(-c2ccccc2)c2c(-c3ccccc3)sc(-c3ccccc3)c2c1-c1ccccc1 | – | > 100 | – | > 100 | – | > 100 | – | > 100 | – | > 100 | – | – | – | > 100 | – | > 100 | – | > 100 | > 100 | –
CC1NOC(=O)C1N=Nc1ccccc1Cl (configuration not stated) | – | > 100 | – | > 100 | – | > 100 | – | > 100 | – | 65.7 | – | – | – | > 100 | – | > 100 | – | > 100 | > 100 | –
O=C1OC2(c3ccccc3Oc3ccccc32)c2ccccc21 | – | > 100 | – | > 100 | – | > 100 | – | > 100 | – | > 100 | – | – | – | > 100 | – | > 100 | – | > 100 | > 100 | –
COc1cc2c(/C=C3/C(=O)Nc4ccccc43)c(Cl)n(Cc3ccccc3[N+](=O)[O-])c2cc1C | 4.95 | 19.6 | 3.18 | 15.5 | 5.66 | 29.5 | – | – | 3.41 | 13.8 | 5.46 | > 100 | 5.51 | > 100 | 3.02 | 15 | 11.2 | 25.1 | 12.4 | 3.47
